{"source": "patent US11028088B2", "about": "“Modulators of BTK proteolysis and methods of use” (Yale University, priority 2018, dated 2021)", "key": {"C481S BTK": {"target": "C481S BTK (Homo sapiens, UniProt Q06187, C481S)", "sequence (Q06187 whole entry C481S)": "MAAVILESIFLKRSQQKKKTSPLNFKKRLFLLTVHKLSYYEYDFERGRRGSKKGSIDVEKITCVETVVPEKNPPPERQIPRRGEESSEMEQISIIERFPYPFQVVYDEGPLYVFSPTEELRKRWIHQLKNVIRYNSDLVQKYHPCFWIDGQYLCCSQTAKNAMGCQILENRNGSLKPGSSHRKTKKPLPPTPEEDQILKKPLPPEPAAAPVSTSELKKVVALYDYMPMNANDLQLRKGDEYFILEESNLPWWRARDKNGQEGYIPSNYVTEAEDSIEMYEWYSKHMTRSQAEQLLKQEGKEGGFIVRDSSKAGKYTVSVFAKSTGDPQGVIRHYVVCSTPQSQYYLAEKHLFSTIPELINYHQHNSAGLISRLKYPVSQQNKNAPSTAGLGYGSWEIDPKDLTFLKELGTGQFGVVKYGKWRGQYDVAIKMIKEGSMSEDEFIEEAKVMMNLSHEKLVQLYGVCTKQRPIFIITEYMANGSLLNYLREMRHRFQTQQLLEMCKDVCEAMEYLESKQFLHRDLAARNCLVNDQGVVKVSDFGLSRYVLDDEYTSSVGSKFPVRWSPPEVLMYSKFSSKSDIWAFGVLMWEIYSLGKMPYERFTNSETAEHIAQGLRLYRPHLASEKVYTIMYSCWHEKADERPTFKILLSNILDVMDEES", "experiment": "BTK and pBTK in primary CLL patient cells after ibrutinib relapse", "experimental": "The cell suspension was kept on ice and agitated every 10 minutes for 30 minutes, followed by centrifugation for 10 minutes at 4° C. The supernatant was then collected and frozen at −80° C. until quantification. Protein quantification was performed for each supernatant using the BCA method (Thermo Scientific). Protein from each sample was added to 2× or 6× Laemmli's Sample buffer as previously described (41). 50 μg of each sample and a protein molecular weight marker were loaded onto 10% polyacrylamide gels and electrophoresed. Transfer of the proteins and blocking of membranes were performed as previously described (40).\nThe blots were washed with TBS-T (Tris-buffered saline-0.05% Tween) three times for 10 minutes with constant agitation, then incubated with HRP-conjugated anti-rabbit or anti-mouse IgG (Santa Cruz Biotechnologies) diluted 1:5,000 in Blotto for 2 hours at 4° C. with constant agitation. Prior to development, the blots were again washed with TBS-T three times for 10 minutes with constant agitation. Blots were developed using chemiluminescent substrate (WesternBright by Advansta or SuperSignal by ThermoScientific) and X-ray film (GeneMate) was used to perform autoradiography. Quantification was performed on the protein bands using computer densitometry (AlphaView software)."}, "MKK7": {"target": "T1, MKK7 (Homo sapiens, UniProt O14733)", "T1 construct": "purchased DiscoverX (KINOMEscan service)", "T1 sequence (O14733 1-419)": "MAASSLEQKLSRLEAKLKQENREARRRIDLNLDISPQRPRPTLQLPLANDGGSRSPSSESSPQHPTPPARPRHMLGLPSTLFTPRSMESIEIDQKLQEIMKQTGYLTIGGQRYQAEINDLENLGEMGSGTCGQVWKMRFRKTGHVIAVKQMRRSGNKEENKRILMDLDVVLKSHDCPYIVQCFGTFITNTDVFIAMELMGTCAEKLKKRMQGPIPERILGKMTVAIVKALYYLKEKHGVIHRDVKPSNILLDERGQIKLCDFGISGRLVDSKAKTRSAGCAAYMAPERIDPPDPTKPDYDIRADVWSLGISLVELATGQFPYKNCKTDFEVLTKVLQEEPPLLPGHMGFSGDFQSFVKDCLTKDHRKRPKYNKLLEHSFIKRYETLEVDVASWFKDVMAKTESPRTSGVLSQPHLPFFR", "experiment": "KINOMEscan competition binding assay, MKK7", "conditions": "read-out: KINOMEscan percentage of control, MKK7"}, "IKZF1": {"target": "T2, IKZF1 (Homo sapiens, UniProt Q13422)", "T2 construct": "endogenous in cells; host or cells: primary B-lymphocytes from CLL patients", "experiment": "IKZF1 degradation in primary cells from CLL patients (immunoblot)", "type": "cell-based", "conditions": "B-lymphocytes derived from CLL patients, increasing concentrations", "procedure": "FIG. 3F depicts primary cells from CLL patients that were treated with 1.0 μM lenalidomide and increasing concentrations of Compound 102 and levels of IKZF1 and IKZF3 transcription factors were assessed by immunoblotting.\nNAMALWA and Jurkat cell lines were purchased from ATCC and cultured according to supplier guidelines at 37° C. 5% CO2 in RPMI 1640 (Gibco) supplemented with 10% fetal bovine serum and 1× penicillin-streptomycin. Wild-type and C481S BTK XLA cell lines were cultured as previously described (39). Written, informed consent was obtained prior to the collection of cells from CLL patients using the IWCLL2008 criteria. Isolation of mononuclear cells from peripheral blood was prepared using density gradient centrifugation. B-cells were then negatively selected ([…] Technologies). […]\nEither anti-rabbit or anti-mouse HRP-conjugated secondary antibodies (Pierce) were incubated with the membranes for 1 h at room temperature at 1:10,000 dilutions in 5% non-fat milk in IX TBS-T. Imaging was performed using the ECL Prime chemiluminescent western blot detection reagents (Amersham) followed by visualization with the Bio-Rad ChemiDoc imaging instrument. All western blots were subsequently processed and quantified using the accompanying Bio-Rad Image Lab software. […]"}, "ITK": {"target": "T3, ITK (Homo sapiens, UniProt Q08881)", "T3 sequence (Q08881 1-620)": "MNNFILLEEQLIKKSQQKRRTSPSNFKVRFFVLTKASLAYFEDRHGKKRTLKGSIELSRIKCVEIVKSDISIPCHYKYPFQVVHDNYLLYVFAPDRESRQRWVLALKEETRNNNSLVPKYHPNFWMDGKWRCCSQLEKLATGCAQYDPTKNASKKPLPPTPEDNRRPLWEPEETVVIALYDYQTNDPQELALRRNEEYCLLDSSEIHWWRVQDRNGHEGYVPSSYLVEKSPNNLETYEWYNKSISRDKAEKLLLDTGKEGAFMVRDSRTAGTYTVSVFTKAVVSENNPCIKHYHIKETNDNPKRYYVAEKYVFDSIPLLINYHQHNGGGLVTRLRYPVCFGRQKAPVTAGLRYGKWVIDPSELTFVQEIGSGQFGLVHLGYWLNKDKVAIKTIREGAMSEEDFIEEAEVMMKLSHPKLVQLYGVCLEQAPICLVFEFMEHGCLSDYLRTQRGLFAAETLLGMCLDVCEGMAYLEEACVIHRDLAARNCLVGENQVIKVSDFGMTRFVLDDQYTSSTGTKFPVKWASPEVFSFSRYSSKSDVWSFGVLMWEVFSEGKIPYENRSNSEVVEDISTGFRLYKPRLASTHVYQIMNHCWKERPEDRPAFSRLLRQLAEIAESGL", "experiment": "KINOMEscan competition binding assay, ITK", "parameters": "purchased DiscoverX (KINOMEscan service)", "conditions": "read-out: KINOMEscan percentage of control, ITK"}, "BTK": {"target": "BTK (Homo sapiens, UniProt Q06187)", "sequence (Q06187 whole entry)": "as the sequence (Q06187 whole entry C481S) above, with S481C counted along it", "experiment": "BTK degradation in NAMALWA cells (immunoblot)", "type": "cell-based", "parameters": "host or cells: NAMALWA", "conditions": "NAMALWA cells", "procedure,_shortened": "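NAMALWA cells were cultured at 37° C in 5% CO2, and lysates were clarified and normalised for total protein by BCA. BTK was detected by immunoblot with primary antibodies at 1:1,000 and HRP secondaries at 1:10,000, using ECL chemiluminescence and densitometric band quantification.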"}}, "note": "“Also recorded” adds a separate entry of the source."}
{"compound": "Nc1ncnc2c1c(-c1ccc(Oc3ccccc3)cc1)nn2C1CCN(CCOCCOCC(=O)Nc2ccc3c(c2)C(=O)N(C2CCC(=O)NC2=O)C3=O)CC1", "note": "(centres unmarked) [Compound 102, 2-[2-[2-[4-[4-amino-3-(4-phenoxyphenyl)pyrazolo[3,4-d]pyrimidin-1-yl]-1-piperidyl]ethoxy]ethoxy]-N-[2-(2,6-dioxo-3-piperidyl)-1,3-dioxo-isoindolin-5-yl]acetamide]", "values": [{"measurement": "reduction of active, Y223 phosphorylated BTK", "setting": "C481S BTK; after relapse (C481S BTK), 1 μM", "value": "retained its ability to reduce the pool of active, Y223 phosphorylated BTK"}, {"measurement": "degradation of C481S BTK", "setting": "C481S BTK; relapse primary patient sample, 1 μM 24 h", "value": "able to degrade"}, {"measurement": "remaining binding at 1 µM", "setting": "MKK7", "value": "> 80", "unit": "%"}, {"measurement": "IKZF1 degradation", "setting": "IKZF1", "value": "No degradation of either protein was observed"}, {"measurement": "remaining binding at 1 µM", "setting": "ITK", "value": "> 80", "unit": "%"}, {"measurement": "time at which BTK is fully degraded", "setting": "BTK; 250 nM", "value": 4, "unit": "h"}, {"measurement": "time after which half of the total BTK is degraded", "setting": "BTK; 250 nM, vs matched vehicle-treated time point, exponential fit", "value": "approximately 50 minutes"}, {"measurement": "BTK degradation after pre-treatment with MLN-4924", "setting": "BTK; MLN-4924 1 μM 2.5 h, then 250 nM PROTAC 4 h", "value": "rescue of BTK levels"}, {"measurement": "DC50", "setting": "BTK; concentration needed to degrade 50% of the total pool of BTK, read-out: DC50", "value": 9.1, "unit": "nM"}, {"measurement": "BTK degradation after pre-treatment with epoxomicin", "setting": "BTK; epoxomicin 1 μM 2.5 h, then 250 nM PROTAC 4 h", "value": "rescue of BTK levels; also recorded: did not result in BTK degradation"}, {"measurement": "BTK degradation after pre-treatment with excess ibrutinib", "setting": "BTK; ibrutinib 25 μM 2.5 h, then 250 nM PROTAC 4 h", "value": "rescued BTK levels"}, {"measurement": "Max", "setting": "BTK; maximal BTK degradation, at 250 nM", "value": ">99", "unit": "%"}, {"measurement": "BTK degradation after pre-treatment with excess pomalidomide", "setting": "BTK; pomalidomide 25 μM 2.5 h, then 250 nM PROTAC 4 h", "value": "rescued BTK levels"}, {"measurement": "hook-effect (increase in BTK levels at high PROTAC concentration)", "setting": "BTK; up to 2.5 μM, 24 h", "value": "without observation and No and no significant increases in BTK levels and (No"}]}
